From patent publication US20230082989A1, “DEVICES AND METHODS FOR TREATING CANCER AND CARDIAC WASTING” (Nazzano Devices Limited, priority 2020, published 2023)

Tests used:
Format in all cases: in vivo, human
[1] = test system: patients with advanced cancer; test: Prospective study of ivabradine in advanced cancer patients: heart rate; conditions: 4 cancer patients, no known heart failure, LVEF>50%, heart rate >70 bpm; Ivabradine starting dose 5 mg twice a day; reduced from 104.5±10.4 bpm
Description: In this study an effect of a use of a heart drug in advanced cancer was studied. In some cases, a heart drug can comprise ivabradine. In some cases, ivabradine can be a selective antagonist of myocardial If (funny) channels. […] In some cases, ivabradine can provide pure heart rate reduction, reducing a diastolic depolarization slope, without altering other cardiac and hemodynamic parameters. In some cases, ivabradine can be effective for a treatment of an ischemic heart disease. In some cases, ivabradine can reduce episodes of both symptomatic angina pectoris and myocardial ischemia, and in heart failure where it can reduce mortality and morbidity. In some cases, it may only be approved or recommended for treatment of these two conditions. In some cases, ivabradine may have never been recommended for a treatment of a cancer patient. Disclosed herein in some embodiments, are methods in which ivabradine can be administered for a treatment of a cancer patient.
In this study 4 cancer patients with no known heart failure and with normal left ventricular function (LEF>50%) were studied. […]

[2] = test system: patients with advanced cancer; test: Quality of life by Kansas City Cardiomyopathy Questionnaire (KCCQ), ivabradine study
Description: N=4, LVEF>50%. A 5 unit increase was considered a clinically meaningful change. […] The KCCQ score range is 0-100, with higher scores indicating better QoL, and improvements of ≥5 indicated clinically important changes.
(§1) In this study 4 cancer patients with no known heart failure and with normal left ventricular function (LEF>50%) were studied. They all had histologically confirmed diagnoses of cancer (see table 1), and all suffered poor quality of life, with three showing a Karnofksy performance score of 70-80% (indicating an inability to carry on normal activity or to do active work) and one showing a Karnofksy performance score of 50-60% (indicating a need for considerable assistance and frequent medical care). […] All were given Ivabradine at a starting dose of 5 mg twice a day. Heart rate was reduced in all patients from 104.5±10.4 bpm to 77.0±10.9 bpm. […] The questionnaires are the Minnesota Living with Heart Failure Questionnaire (MLHFQ) (see FIG. 15) and the Kansas City Cardiomyopathy Questionnaire (KCCQ) (see FIG. 14). In the […] indicate a better quality of life and in the MLWHFQ lower scores indicate a better quality of life. The two figures show the clinically important improvement in symptoms and quality of life achieved in these patient by the use of the heart failure drug Ivabradine.

[3] = test system: patients with advanced cancer; test: Quality of life by Minnesota Living with Heart Failure Questionnaire (MLHFQ), ivabradine study; conditions: N=4, LVEF>50%; total score range 0-105, lower = better QoL, <24 good QoL
Description: N=4, LVEF>50%. […] MLHFQ has a total score range of 0-105. A lower score indicated a better QoL, with a score of <24 indicating good QoL, scores from 24 to […] indicating moderately impaired QoL, scores >45 indicating low QoL.
as §1

COc1cc2c(cc1OC)CC(=O)N(CCCN(C)C[C@H]1Cc3cc(OC)c(OC)cc31)CC2 [Ivabradine]
Heart rate on ivabradine [1]: 77.0±10.9 bpm
Symptoms (breathlessness, fatigue) by MLHFQ and KCCQ symptom scores ([2]; 4 cancer patients, addition of ivabradine 5 mg twice a day starting dose): importantly improved symptoms
KCCQ score improvement from baseline to follow up ([2]; N=4, LVEF>50%, score range 0-100, higher = better QoL, improvement ≥5 clinically important): ≥ 5
MLHFQ score, baseline to follow-up [3]: improvements from baseline to follow-up, with good QoL at follow-up
